Assay results from patent publication US8669257B2, “Phenazine derivatives and uses thereof as potassium channel modulators” (The Johns Hopkins University, priority 2007, dated 2014).
“Also recorded” adds a separate entry of the source. Where two headings read alike, the source gives them in different places.

Legend:
calcineurin = experiment: Calcineurin enzymatic activity in vitro; type: biochemical; conditions: substrates para-nitrophenylphosphate or immunoprecipitated NFATc2
[1] = tested on: CRAC channel (CRACM1, CRACM2, CRACM3 with STIM1); experiment: Patch-clamp of reconstituted CRAC current in HEK293 cells; type: cell-based; conditions: CRACM1, CRACM2 or CRACM3 with STIM1 in HEK293 cells
Description: (§1) Patch pipettes, pulled from glass capillaries (inner diameter 1.5 mm, Kimble products) with a horizontal puller (Sutter instruments, Modell P-97), were fire-polished, and had resistances between 2 and 4 MOhm. Patch-clamp experiments were performed in the tight-seal whole-cell configuration at room temperature (22-24° C.). High-resolution current recordings were acquired by a computer-based patch-clamp amplifier system (EPC-9, HEKA). Immediately following establishment of the whole-cell configuration, every two seconds voltage ramps of 50 ms duration spanning the voltage range of −100 to +100 mV for Jurkat T-cells and −150 to +150 mV for HEK293 were delivered from a holding potential (Vh) of −70 mV for Jurkats and 0 mV for HEK293 cells over a period of 300-600 s. […] Capacitive currents and series resistance were determined and corrected before each voltage ramp using the automatic capacitance compensation of the EPC-9. […] Kv1.3 currents in Jurkat T-cells were measured at +80 mV. Heterologously expressed Kv1.1, Kv1.2, Kv1.3, Kv1.5 and Kv3.1 were assessed at +80 mV except in Figure S7, where currents were additionally measured at the more physiological voltage of 0 mV. CRAC currents in HEK293 cells were assessed at −80 mV. […]

mouse Kv3.1 = target: T1, mouse Kv3.1 (Mus musculus, UniProt P15388); experiment: Patch-clamp of heterologous mouse Kv3.1 expressed in L929 cells; type: cell-based
T1 construct: expressed in transfected cells; host or cells: L929 cells
Description: as §1

murine skin transplant = experiment: Mouse skin transplantation with adoptive transfer of murine cells (parallel experiment); type: in vivo; conditions: murine skin and total murine T-cells
Source text: FIG. 5. […] (A) Representative skin grafts at different days post-transplantation. Human foreskin was transplanted onto Pfp/Rag2−/− mice. 1.0×10^8 human peripheral blood lymphocytes (PBL) were adoptively transferred into each animal at Day 7 post-transplantation. Administration of clofazimine or carrier control (olive oil) was also initiated at Day 7. * Days after skin transplantation/cell transfer. (B) Effect of clofazimine on the mean survival time of transplanted human (n=5) and mouse (n=4) skin grafts. The mouse skin transplantation was performed using Balb/c mice as skin donors, B6 Rag1−/− mice as recipients and PBL from B6 for adoptive transfer.

[2] = tested on: calcium influx in Jurkat T-cells; experiment: Calcium imaging assay: store-depletion induced calcium influx in Jurkat T-cells; type: cell-based, human; conditions: thapsigargin then 2 mM Ca2+; clofazimine preincubated 5 min
Description: JurkaT-cells were attached to L-lysine-coated glass dishes (MatTek). Cells were loaded with fura-2-AM (Invitrogen_F-1201) for 45 min before they were washed sequentially with growth medium and Ca^2+-free HBSS. Fluorescence excitation wavelengths were set at 350 and 380 nm, respectively, on a Zeiss Axiovert 200M microscope while emission wavelength was set at 510 nm. Changes in intracellular calcium concentrations were determined by fluorescence intensity ratio ([…]/F380).

[3] = tested on: human mixed lymphocyte reaction; experiment: Human mixed lymphocyte reaction (MLR), [3H]-thymidine incorporation; type: cell-based; conditions: FIG. 1B, n=6
Description: The human MLR was established by coculturing normal human PBMN responder lymphocytes (0.5×10^6) with an equal number of miomycin C-treated stimulator cells in RPMI1640 complete medium. The cells were incubated with varying doses of clofazimine at 37° C. in a humidified atmosphere of 5% CO2 for 4 days. Then 1 μCi of [^3H]-thymidine was added into culture and incubation was continued for 6 h. The cells were harvested and [^3H]-thymidine incorporated into cells was measured in a liquid scintillation counter.

[4] = tested on: endogenous NFATc2 dephosphorylation; experiment: Dephosphorylation of endogenous NFATc2 in Jurkat T-cells (Western blot); type: cell-based, human; conditions: ionomycin treatment
Description: Jurkat T-cells were pretreated with indicated compounds for 1 h before 3 μM (final concentration) ionomycin was added. Cells were harvested after 30 min and lysed in a lysis buffer [40 mM Tris (pH 7.8), 1% NP-40, 10 mM EDTA, 60 mM […] and common protease inhibitors] by sonication. NFATc2 was resolved by 8% SDS-PAGE followed by Western blot analysis using anti-NFAT antibodies (Santa-cruz Sc-7296, 1:100 dilution).

[5] = tested on: mouse mixed lymphocyte reaction; experiment: Murine mixed lymphocyte reaction; type: cell-based; conditions: n=3
[6] = target: T2, calcineurin-NFATc2 interaction (Homo sapiens, UniProt P16298+Q13469, H160N); experiment: Mammalian two-hybrid assay of calcineurin and NFATc2 in Jurkat T-cells; type: cell-based
T2 construct: calcineurinA (1-400, H160N) and NFATc2 (1-415) in Jurkat T-cells; expressed in transfected cells; host or cells: Jurkat T-cells

AP-1 luciferase reporter = AP-1 luciferase reporter assay in Jurkat T-cells; type: cell-based, human; conditions: PMA/ionomycin, high concentrations (>1 μM for clofazimine)

T2 sequence (Q13469 1-415): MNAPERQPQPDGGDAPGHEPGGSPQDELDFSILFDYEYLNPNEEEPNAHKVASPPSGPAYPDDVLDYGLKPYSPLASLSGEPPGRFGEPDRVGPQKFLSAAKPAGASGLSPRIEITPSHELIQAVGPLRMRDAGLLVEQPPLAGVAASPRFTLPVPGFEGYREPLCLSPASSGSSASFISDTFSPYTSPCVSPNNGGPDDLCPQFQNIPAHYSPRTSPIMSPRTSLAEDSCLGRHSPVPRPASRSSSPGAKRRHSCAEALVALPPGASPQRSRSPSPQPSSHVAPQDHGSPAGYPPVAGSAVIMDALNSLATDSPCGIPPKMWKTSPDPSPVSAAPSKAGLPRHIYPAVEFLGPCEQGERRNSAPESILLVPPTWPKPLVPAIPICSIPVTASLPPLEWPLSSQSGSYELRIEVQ
T1 sequence (P15388 whole entry): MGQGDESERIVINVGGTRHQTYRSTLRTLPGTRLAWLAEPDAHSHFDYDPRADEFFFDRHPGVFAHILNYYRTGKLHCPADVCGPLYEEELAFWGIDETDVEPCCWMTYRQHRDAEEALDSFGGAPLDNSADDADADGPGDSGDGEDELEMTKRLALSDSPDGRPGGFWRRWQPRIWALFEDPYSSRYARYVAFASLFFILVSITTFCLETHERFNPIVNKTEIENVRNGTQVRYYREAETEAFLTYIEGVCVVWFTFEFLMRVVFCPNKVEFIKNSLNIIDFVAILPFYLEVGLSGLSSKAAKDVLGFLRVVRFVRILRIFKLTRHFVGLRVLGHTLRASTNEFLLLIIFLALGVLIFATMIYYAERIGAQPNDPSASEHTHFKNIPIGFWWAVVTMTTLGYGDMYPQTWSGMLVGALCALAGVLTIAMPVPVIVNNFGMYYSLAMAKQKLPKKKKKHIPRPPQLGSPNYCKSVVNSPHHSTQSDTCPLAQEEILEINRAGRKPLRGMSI

CC(C)/N=c1\cc2n(-c3ccc(Cl)cc3)c3ccccc3nc-2cc1Nc1ccc(Cl)cc1 [clofazimine, Clofazimine]
effect on enzymatic activity of calcineurin in vitro (calcineurin): no effect on the enzymatic activity; also recorded: does not inhibit the protein phosphatase activity | effect on reconstituted CRAC current [1]: no effects | effect on reconstituted CRAC current ([1]; listed as Clofazimine): without affecting | block of current, mouse Kv3.1 (mouse Kv3.1; 10 μM): less than 50% | IC50 (mouse Kv3.1; inferred from block at 10 μM): > 10000 nM | effect on survival of murine skin transplant (murine skin transplant): no effect on the survival | effect on calcium entry [2]: inhibited by clofazimine in a heterogeneous fashion; also recorded: only about a quarter of cells are responsive | IC50 [3]: 900 ± 170 nM | effect on dephosphorylation of endogenous NFATc2 [4]: inhibited ionomycin-induced dephosphorylation of NFATc2 in a dose-dependent manner | effect on dephosphorylation of endogenous NFATc2 ([4]; listed as Clofazimine): inhibits dephosphorylation | effect on murine mixed lymphocyte reaction [5]: failed to observe a dose-dependent inhibition; also recorded: Biphasic effects | effect on calcium-dependent NFAT-calcineurin interaction [6]: inhibited the calcium-dependent NFAT-calcineurin interaction in a dose-dependent manner | effect on calcium-dependent NFAT-calcineurin interaction ([6]; listed as Clofazimine): inhibits the calcium-dependent enhancement | effect on AP-1 luciferase reporter (AP-1 luciferase reporter): enhanced, rather than inhibited | effect on AP-1 luciferase reporter (AP-1 luciferase reporter; listed as Clofazimine): significantly enhances
